Reference: patent publication US4208417A, “Indole derivatives and their use as anxiolytics” (Pharmindustrie, priority 1978, dated 1980)
Read-outs that look alike come from different tables or passages of the source.

Tests used:
[1] = Acute toxicity in mice (LD50); assay type: in vivo; settings: mouse, in vivo
From the text: (§1) The following Table 2 contains values already given in U.S. Pat. No. 4,064,255 and supplies additional values obtained according to the same procedure.

[2] = biological target: benzodiazepine receptor (^3 H-diazepam binding sites, rat brain membranes)
Method: This efficacy is measured by Ki values in micro moles calculated by using the equation:
C=the concentration of ^3 H-diazepam,
KD =the affinity constant=2,74 μM, and
IC50 =the concentration causing 50% inhibition of ^3 H-diazepam binding.

[3] = test system: Mice; assay: Acute toxicity in mice (LD50); assay type: in vivo
From the text: as §1

[4] = iv, I.V., read-out: Acute toxicity LD50, I.V.
[5] = po, orally, read-out: Acute toxicity LD50, orally

SMILES | LD50 [1, 4] [mg/kg] | LD50 [1, 5] [mg/kg] | Ki [2] [µM] | Acute toxicity LD50, I.V. [3] [mg/kg] | Acute toxicity LD50, orally [3] [mg/kg]
c1ccc2c(CCCC3CCNCC3)c[nH]c2c1 [Example 13, [(Indolyl-3)-3 propyl]-4 piperidine] | 29 | 600 | 70 |  | 
c1ccc(Cn2cc(CCC3CCNCC3)c3ccccc32)cc1 [Example 14, [(Benzyl-1 indolyl-3)-2 ethyl]-4 piperidine] | 33 | 525 | 33 |  | 
Clc1ccc2[nH]cc(CCC3CCNCC3)c2c1 [Example 12, [(Chloro-5 indolyl-3)-2 ethyl]-4 piperidine] | 85 | 625 | 37 |  | 
Cn1cc(CCC2CCNCC2)c2ccccc21 [Example 9, [(Methyl-1 indolyl-3)-2 ethyl]-4 piperidine] |  |  | 90 | 44 | 225
c1ccc2c(CCC3CCNCC3)c[nH]c2c1 [Example 10, [(Indolyl-3)-2 ethyl]-4 piperidine] |  |  | 64 | 60 | 600
COc1ccc2[nH]cc(CCC3CCNCC3)c2c1 [Example 8, [(Methoxy-5 indolyl-3)-2 ethyl]-4 piperidine] | 41 | 675 | 40 |  | 
c1ccc2c(CC3CCNCC3)c[nH]c2c1 [Example 11, (Indolyl-3 methyl)-4 piperidine] |  |  | 90 | 57 | 225
O=C(CC1CCNCC1)c1c[nH]c2ccccc12 [Example 1, Indolyl-3-(piperidyl-4-methyl)ketone] | 47 | 300 to 900 | 43 |  | 
